The term melting point denotes the temperature, or range, at which the solid turns liquid.

In turn, `CC(=O)Nc1nc2c(Oc3cc(N4CCN(C(C)c5ccccc5F)CC4)ncn3)cccc2s1` (racemic) [Example 1, N-[4-(6-{4-[(1S,1R)-1-(2-Fluoro-phenyl)-ethyl]-piperazin-1-yl}-pyrimidin-4-yloxy)-benzothiazol-2-yl]-acetamide] showed a melting point of 202.6 to 204.3 °C.

The compound `CC(=O)Nc1nc2c(Oc3cc(N4CCN(C(C)c5ccc(F)cc5)CC4)ncn3)cccc2s1` (racemic) [Example 2, N-[4-(6-{4-[(1S,1R)-1-(4-Fluoro-phenyl) -ethyl]-piperazine1-yl}-pyrimidin-4-yloxy)-benzothiazol-2-yl]-acetamide] displayed a melting point of 247.3 °C.

`CC(=O)Nc1nc2c(Oc3cc(N4CCN([C@@H](C)c5ccc(F)cc5)CC4)ncn3)cccc2s1` [Example 21, N-[4-(6-{4-[(1S)-1-(4-Fluoro-phenyl)-ethyl]-piperazine 1-yl}-pyrimidin-4-yloxy)-benzothiazol-2-yl]-acetamide] gave a melting point of 243.6 to 245.7 °C.

In turn, `CC(=O)Nc1nc2c(Oc3cc(N4CCN([C@H](C)c5ccc(F)cc5)CC4)ncn3)cccc2s1` [Example 22, N-[4-(6-{4-[(1R)-1-(4-Fluoro-phenyl)-ethyl]-piperazine1-yl}-pyrimidin-4-yloxy)-benzothiazol-2-yl]-acetamide] registered a melting point of 243.8 to 245.9 °C.

`C[C@@H](c1ccc(F)cc1)N1CCN(c2cc(Oc3cccc4ccc(N)nc34)ncn2)CC1` [Example 24, 8-(6-{4-[(1S)-(4-Fluoro-phenyl)-ethyl]-piperazine-1-yl}-pyrimidin-4-yloxy)-quinolin-2-ylamine]: the melting point came out at 167 °C.

The compound `C[C@H](c1ccc(F)cc1)N1CCN(c2cc(Oc3cccc4[nH]c(=O)c(N)nc34)ncn2)CC1` [Example 26, 3-Amino-5-(6-{4-[(1R)-1-(4-fluoro-phenyl)-ethyl]-piperazin-1-yl}-pyrimidin-4-yloxy)-1H-quinoxalin-2-one] had a melting point of 292.2 to 293.9 °C.

As to `C[C@@H](c1ccc(F)cc1)N1CCN(c2cc(Oc3cccc4[nH]c(=O)c(N)nc34)ncn2)CC1` [Example 27, 3-Amino-5-(6-{4-[(1S)-1-(4-fluoro-phenyl)-ethyl]-piperazin-1-yl}-pyrimidin-4-yloxy)-1H-quinoxalin-2-one], the melting point was 294.5 to 295.3 °C.

In turn, `CC(c1ccc(F)cc1)N1CCN(c2cc(Oc3cccc4sc(N)nc34)ncn2)CC1` (stereo not shown) [Example 52, 4-(6-(4-(1-(4-Fluorophenyl)ethyl)piperazin-1-yl)pyrimidin-4-yloxy)benzo[d]thiazol-2-amine] came in with a melting point of 222 °C.

`C[C@@H](c1ccc(F)cc1)N1CCN(c2cc(Oc3cccc4ncc(N)nc34)ncn2)CC1` [Example 54, (S)-8-(6-(4-(1-(4-Fluorophenyl)ethyl)piperazin-1-yl)pyrimidin-4-yloxy)quinoxalin-2-amine]: the melting point is 114 °C.

In turn, `C[C@H](c1ccc(F)cc1)N1CCN(c2cc(Oc3cccc4ncc(N)nc34)ncn2)CC1` [Example 55, (R)-8-(6-(4-(1-(4-Fluorophenyl)ethyl)piperazin-1-yl)pyrimidin-4-yloxy)quinoxalin-2-amine] returned a melting point of 118 °C.

`C[C@H](c1ccc(F)cc1)N1CCN(c2cc(Oc3cc(F)cc4[nH]c(=O)c(N)nc34)ncn2)CC1` [Example 57, (R)-3-Amino-7-fluoro-5-(6-(4-(1-(4-fluorophenyl)ethyl)piperazin-1-yl)pyrimidin-4-yloxy)quinoxalin-2(1H)-one]: the melting point is 315 °C.

For the compound `C[C@@H](c1ccc(F)cc1)N1CCN(c2cc(Oc3cc(F)cc4[nH]c(=O)c(N)nc34)ncn2)CC1` [Example 58, (S)-3-Amino-7-fluoro-5-(6-(4-(1-(4-fluorophenyl)ethyl)piperazin-1-yl)pyrimidin-4-yloxy)quinoxalin-2(1H)-one], the melting point was 288 °C.

As to `C[C@H](c1ccc(F)cc1)N1CCN(c2cc(Oc3cccc4c3nc(N)c(=O)n4C)ncn2)CC1` [Example 59, (R)-3-Amino-5-(6-(4-(1-(4-fluorophenyl)ethyl)piperazin-1-yl)pyrimidin-4-yloxy)-1-methylquinoxalin-2(1H)-one], the melting point was 256 °C.

`CC(c1ccc(F)cc1)N1CCN(c2cc(Oc3cccc4[nH]c(=O)ccc34)ncn2)CC1` (stereo not shown) [Example 61, 5-(6-(4-(1-(4-Fluorophenyl)ethyl)piperazin-1-yl)pyrimidin-4-yloxy)quinoline-2(1H)-one] showed a melting point of 242.2 °C.

On to `CC(=O)Nc1nc2c(Oc3cc(N4CCN(C(C)c5ccc(F)cc5)CC4)ncn3)cccc2o1` (stereo not shown) [Example 66, N-(4-(6-(4-(1-(4-Fluorophenyl)ethyl)piperazin-1-yl)pyrimidin-4-yloxy)benzo[d]oxazol-2-yl)acetamide], for which the melting point was 199.8 °C.

As to `CC(=O)Nc1ccc2cccc(Oc3cc(N4CCN([C@H](C)c5ccc(F)cc5)CC4)ncn3)c2n1` [Example 69, (R)-N-(8-(6-(4-(1-(4-Fluorophenyl)ethyl)piperazin-1-yl)pyrimidin-4-yloxy)quinolin-2-yl)acetamide], the melting point was 134 °C.

As to `CC(c1ccc(F)cc1)N1CCN(c2cc(Oc3cccc4ccncc34)ncn2)CC1` (stereo not shown) [Example 70, 8-(6-(4-(1-(4-Fluorophenyl)ethyl)piperazin-1-yl)pyrimidin-4-yloxy)isoquinoline], the melting point came out at 114 °C.

The compound `CC(c1ccc(F)cc1)N1CCN(c2cc(Oc3cccc4c3NCC(=O)N4)ncn2)CC1` (stereo not shown) [Example 71, 5-(6-(4-(1-(4-Fluorophenyl)ethyl)piperazin-1-yl)pyrimidin-4-yloxy)-3,4-dihydroquinoxalin-2-(1H)-one] displayed a melting point of 221 °C.

`CC(c1ccc(F)cc1)N1CCN(c2cc(Oc3cccc4c(=O)[nH]ccc34)ncn2)CC1` (stereo not shown) [Example 72, 5-(6-(4-(1-(4-Fluorophenyl)ethyl)piperazin-1-yl)pyrimidin-4-yloxy)isoquinolin-1(2H)-one] yielded a melting point of 249 °C.

Values taken from patent publication US7511044B2, “Vanilloid receptor ligands and their use in treatments” (Amgen Inc., priority 2004, dated 2009).
